Test results from US9616051B2, “Drug targets to overcome de novo drug-resistance in multiple myeloma” (H. Lee Moffitt Cancer Center and Research Institute, Inc., priority 2008, dated 2017).
“Also recorded” adds a separate entry of the source. Like-named read-outs stand apart in the source and are kept apart here.

Key:
[1] = in vivo; cited from earlier work
[2] = test system: topo IIα; details: cited from earlier work
[3] = for 1 hour; cited from earlier work
[4] = test system: p53; assay: p53 nuclear export in low-density myeloma cells (nuclear fraction Western blot); type: cell-based, human; details: H929 at low density (log growth), 25 μM, 20 hours
Procedure: FIG. 14 is a blot of lead compounds tested to determine if nuclear export inhibition was specific to topo IIα protein. p53 was cycled from the nucleus into the cytoplasm in MM cells cultured at log growth conditions. Cells grown at log-phase concentrations were treated with the lead NES inhibitors (25 μM) or a leptomycin control for 20 hours and chemically fractionated. Nuclei were assayed by SDS-PAGE Western blot analysis for p53 protein (anti-p53 (DO-1), Santa Cruz Biotech, Inc). […] Lamin A/C (anti-lamin A/C, BD Pharmingen) is shown as a loading control.
Cells grown at low concentrations were treated with the lead NES inhibitors (25 μM) or a leptomycin B (5 nM) control for 20 hours and chemically fractionated. Nuclei were assayed by SDS-PAGE Western blot analysis for p53 protein.

[5] = test system: high-density MM cells (H929); assay: Cleaved caspase 3 apoptosis assay, sensitization to doxorubicin; details: for Sensitization of high-density MM cells to doxorubicin / synergism: 25 μM NES inhibitor, doxorubicin 2 μM; for Fold-Increased sensitization to dox: dox/drug (dox 2 μM) divided by dox alone
[6] = test system: MCF-7; assay: CT-Glo cytotoxicity assay, MCF-7 cells; type: cell-based; details: average ± SD
Procedure: (§1) The molecules with the highest docking scores were assayed for IC50 values. Cultures were tested for cytotoxicity using the CellTiter-Glo assay (CT-Glo cytotoxicity assay; Promega, Madison, Wis.), a luminescence-based homogeneous method for determining the number of viable cells in culture based on quantitation of the ATP present, which signals the presence of metabolically active cells (Corsino, et al., A novel class of cyclin-dependent kinase inhibitors identified by molecular docking act through a unique mechanism. J Biol Chem 2009; 284: 29945-55; Homsi, et al., Src activation in melanoma and Src inhibitors as therapeutic agents in melanoma. Melanoma Res 2009; 19: 167-75). All cells were assayed at log-phase growth conditions. Luminescence was measured with a Synergy 4 microplate reader (Bio-Tek Instruments, Inc., Winooski, Vt.). IC50 values were determined using a sigmoidal equilibrium model regression using XLfit version 5.2 (ID Business Solutions Ltd., Surrey, UK) (Corsino, et al., A novel class of cyclin-dependent kinase inhibitors identified by molecular docking act through a unique mechanism. J Biol Chem 2009; 284: 29945-55).

[7] = biological target: T1, topo IIα (Homo sapiens, UniProt P11388); assay: Immunofluorescence microscopy of intracellular location of topo IIα; type: cell-based; details: 25 μM NES inhibitor; for Nuclear export of topo IIα by immunofluorescence: 20 hours, high-density (plateau) MM cells; for Fold-increase nuclear topo IIα: H929 cells, nucleus v cytoplasm fluorescence vs untreated high-density controls
T1 construct: effect on the intracellular location of topo IIα in treated MM cells; endogenous in cells; host or cells: human multiple myeloma cells NCI-H929
Procedure: Slides were viewed with a fully automated, upright Zeiss Axio-ImagerZ.1 microscope (Carl Zeiss A G, Oberkochen, Germany). Briefly, the DAPI image was used as a mask to segment the nuclear region from the Alexa 594 image. The remaining portion of the Alexa 594 image represents the cytosol, and individual nucleus and cytosol images were analyzed.
H929 cells were mock treated with 0.1% DMSO in media or with 25 μM of NES inhibitor. The high density control cells, seen in FIG. 9(A) show high levels of topo II staining outside the nucleus, evidencing export of topo II from the nucleus.

[8] = test system: WI-38; assay: CT-Glo cytotoxicity assay, WI-38 cells; type: cell-based; details: 72-h CT-Glo
Procedure: as §1

[9] = biological target: T1, topo IIα; assay: Nuclear-cytoplasmic fractionation and Western blot for topo IIα; type: cell-based; details: high-density RPMI-H929 cells, 25 μM, FIG. 13 legend
Procedure: FIGS. 13(A) and (B) are blots from nuclear (nuc)-cytoplasmic (cyto) fractionation of high-density MM cells (n=2). […] Human myeloma RPMI-H929 cells were treated for 24 hours. Cells were then chemically separated into nuclear and cytoplasmic fractions.
Human myeloma cells were placed at plateau concentrations (4×10^6 cells/ml), and NES inhibitors were added at 25 μM for 20 hours. Cells were collected, washed in PBS, and fractionated by a method adapted from Li et al. (Li Y, Bor Y C, Misawa Y, Xue Y, Rekosh D, Hammarskjold M L. An intron with a constitutive transport element is retained in a Tap messenger RNA. Nature 2006; 443: 234-7). Separated fractions containing nuclei or precipitated cytosol were dissolved in 2% SDS buffer and assayed by SDS-PAGE Western blot analysis. Blots were probed with an anti-topo IIα Kis1 antibody (Millipore Corp.). […] Cells grown at log-phase concentrations were also fractionated. After MM cells were treated with NCI-9138 at 25 μM for 20 hours, CRM1-topo IIα complexes were isolated from cells by immunoprecipitation using a combination of both protein A and protein G magnetic beads according to the manufacturer's protocol (Miltenyi Biotec, Cologne, Germany). Co-immunoprecipitation was performed with 2 μg of anti-CRM1 antibody (Santa Cruz Biotechnology, Inc., Santa Cruz, Calif.). Immunoprecipitation samples were separated by SDS-PAGE, transferred to nitrocellulose membranes, and probed with anti-topo IIα Kis1 antibody (Millipore, Corp., Billerica, Mass.) and anti-mouse horseradish peroxidase secondary antibody.

[10] = biological target: T1, topo IIα; assay: as above; type: cell-based; details: RPMI-H929 cells, 100 μM, 24 hours, relative to untreated controls
[11] = test system: RPMI-8226 (8226); assay: CT-Glo cytotoxicity assay, 8226 cells; type: cell-based, human; details: 8226 cells, 72-h CT-Glo, log-phase (low-density), average ± SD, read-out: IC50
Excerpt: (§2) Compounds identified in Example 1 as the top scoring potential inhibitors for each of the two NES (20 each) were obtained from NCI and structures of these molecules confirmed using NMR and mass spectroscopy analysis, seen in FIGS. 4(A)-(C) and 5(A)-(D). The potential inhibitors were followed up using in vitro model cell cultures. MM cell lines NCI-H929 (H929) and RPMI-8226 (8226) were obtained from and tested for authenticity by the American Type Culture Collection (Manassas, Va.). All cell lines were grown as described previously (Turner, et al., Human topoisomerase IIalpha nuclear export is mediated by two CRM-1-dependent nuclear export signals. J Cell Sci 2004; 117: 3061-71).
as §1

[12] = test system: Kg-1a; assay: CT-Glo cytotoxicity assay, Kg-1a cells; type: cell-based; details: 72-h CT-Glo
Procedure: as §1

[13] = test system: SK-UT; assay: CT-Glo cytotoxicity assay, SK-UT cells; type: cell-based; details: 72-h CT-Glo, average ± SD
Procedure: as §1

[14] = test system: HL-60; assay: CT-Glo cytotoxicity assay, HL-60 cells; type: cell-based; details: 72-h CT-Glo
Procedure: as §1

[15] = test system: FLOW; assay: CT-Glo cytotoxicity assay, FLOW cells; type: cell-based; details: 72-h CT-Glo, average ± SD
Procedure: as §1

[16] = test system: NCI-H929 (H929); assay: CT-Glo cytotoxicity assay, H929 cells; type: cell-based, human; details: average ± SD
Excerpt: as §2, §1

[17] = test system: PBMC; assay: CT-Glo cytotoxicity assay, PBMC; type: cell-based; details: 72-h CT-Glo, average ± SD
Procedure: as §1

[18] = Homo sapiens, MCF7, 72-h CT-Glo
[19] = Homo sapiens, NCI-H929, 72-h CT-Glo

T1 sequence (P11388 whole entry): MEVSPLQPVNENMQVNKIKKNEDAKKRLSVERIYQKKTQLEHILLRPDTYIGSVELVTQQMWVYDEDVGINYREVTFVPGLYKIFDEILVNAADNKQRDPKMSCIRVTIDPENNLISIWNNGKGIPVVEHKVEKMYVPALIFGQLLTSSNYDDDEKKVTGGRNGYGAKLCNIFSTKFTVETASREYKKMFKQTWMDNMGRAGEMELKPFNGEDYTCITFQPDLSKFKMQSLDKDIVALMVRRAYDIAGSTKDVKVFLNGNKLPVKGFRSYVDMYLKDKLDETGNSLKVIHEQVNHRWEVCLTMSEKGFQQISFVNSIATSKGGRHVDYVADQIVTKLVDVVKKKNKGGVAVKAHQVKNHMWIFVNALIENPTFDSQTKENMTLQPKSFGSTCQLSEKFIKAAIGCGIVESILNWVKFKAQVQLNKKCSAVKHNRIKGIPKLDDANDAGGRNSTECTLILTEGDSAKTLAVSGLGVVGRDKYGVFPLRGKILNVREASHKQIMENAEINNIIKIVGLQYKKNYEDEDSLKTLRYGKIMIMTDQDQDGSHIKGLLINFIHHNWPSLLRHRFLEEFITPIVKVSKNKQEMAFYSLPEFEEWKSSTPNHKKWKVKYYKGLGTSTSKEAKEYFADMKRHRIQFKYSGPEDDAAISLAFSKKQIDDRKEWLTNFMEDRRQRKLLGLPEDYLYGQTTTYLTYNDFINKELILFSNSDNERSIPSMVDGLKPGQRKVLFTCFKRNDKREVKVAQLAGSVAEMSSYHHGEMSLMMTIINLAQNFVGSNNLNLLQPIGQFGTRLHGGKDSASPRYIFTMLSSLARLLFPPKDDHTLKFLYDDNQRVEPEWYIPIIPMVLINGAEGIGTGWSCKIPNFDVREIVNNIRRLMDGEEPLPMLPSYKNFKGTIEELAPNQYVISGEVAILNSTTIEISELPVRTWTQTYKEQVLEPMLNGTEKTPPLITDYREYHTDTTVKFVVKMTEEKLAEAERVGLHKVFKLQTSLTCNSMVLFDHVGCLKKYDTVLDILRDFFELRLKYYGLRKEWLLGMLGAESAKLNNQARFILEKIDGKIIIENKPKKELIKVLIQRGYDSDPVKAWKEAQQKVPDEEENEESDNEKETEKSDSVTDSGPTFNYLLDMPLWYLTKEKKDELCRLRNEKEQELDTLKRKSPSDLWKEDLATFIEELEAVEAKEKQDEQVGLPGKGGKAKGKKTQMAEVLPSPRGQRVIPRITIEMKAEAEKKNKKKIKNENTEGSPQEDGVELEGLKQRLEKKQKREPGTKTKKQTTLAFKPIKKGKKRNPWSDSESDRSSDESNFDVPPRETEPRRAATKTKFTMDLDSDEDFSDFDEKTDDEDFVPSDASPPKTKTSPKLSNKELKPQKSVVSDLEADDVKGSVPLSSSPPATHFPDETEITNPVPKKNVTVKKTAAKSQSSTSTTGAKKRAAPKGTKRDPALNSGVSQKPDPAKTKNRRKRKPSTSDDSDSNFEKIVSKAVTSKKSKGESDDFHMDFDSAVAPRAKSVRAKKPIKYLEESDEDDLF

Compound	Nuclear export of p53 [4]	Sensitization of high-density MM cells to doxorubicin / synergism [5]	Fold-Increased sensitization to dox [5] [fold]	Nuclear export of topo IIα by immunofluorescence [7]	Export of topo IIα, nuclear-cytoplasmic fractionation [9]	Cytoplasmic level / nuclear localization of topo IIα, fractionation Western blot [10]	IC50 [13] [µM]	IC50 [15] [µM]	also measured
CCC(=C/[C@H](C)C/C=C/C(C)=C/[C@@H](C)C(=O)[C@@H](C)[C@H](O)[C@@H](C)C/C(C)=C/C(=O)O)/C=C/[C@@H]1OC(=O)C=C[C@@H]1C [leptomycin B]	–	–	–	–	–	–	–	–	Toxicity in human phase I trial [1]: acute relative toxicities; Export mediated by topo IIα NES site A and site B [2]: blocked; Concentration with acute toxicity in vitro [3]: < 5 nM
O=C(Nc1ccc(C2=NCCN2)cc1)c1ccc(C(=O)Nc2ccc(C3=NCCN3)cc2)c([N+](=O)[O-])c1 [NCI-35847, N1,N4-bis(4-(4,5-dihydro-1H-imidazol-2-yl)phenyl)-2-(hydroxy(oxido)amino)terephthalamide]	did not prevent export of p53	synergized with the topo II inhibitor doxorubicin; also recorded: significantly (p<0.05) sensitize high density MM cells to doxorubicin	2.65 ± 0.90	prevent nuclear export of Topo IIα; also recorded: overlapping staining of topo II with DAPI	strongly blocked export of topo IIα	reduced cytoplasmic levels of topo IIα equivalent to that produced by the CRM-1 inhibitor ratjadone C	55.3	62.8	IC50 ([6]; 72-h CT-Glo): 68.5 µM; Fold-increase nuclear topo IIα [7]: 2.81 fold; IC50 [8]: 199 µM; IC50 [11]: 7.2 ± 1.4 µM; IC50 [12]: 73.8 µM; IC50 [14]: 36.5 µM; IC50 ([16]; 72-h CT-Glo): 13.9 µM
O=C(C[N+]12CN3CN(CN(C3)C1)C2)c1ccc2ccccc2c1 [NCI-36400, 1-(2-naphthyl)-2-(15,3,5,7-tetraazatricyclo[3.3.1.1~3,7~]dec-1-yl)ethanone]	–	significantly (p<0.05) sensitize high density MM cells to doxorubicin	–	prevent nuclear export of Topo IIα	–	–	–	–	–
Brc1ccc(C[N+]23CN4CN(CN(C4)C2)C3)cc1 [NCI-80640, 1-(4-bromobenzyl)-15,3,5,7-tetraazatricyclo[3.3.1.1~3,7~]decane]	significantly inhibit nuclear export of p53	synergized with the topo II inhibitor doxorubicin	2.42 ± 1.09	overlapping staining of topo II with DAPI	smaller or little effect on topo II nucleus export inhibition	reduced cytoplasmic levels of topo IIα equivalent to that produced by the CRM-1 inhibitor ratjadone C	25.5	35.6	IC50 [6, 18]: 25.9 µM; IC50 ([8]; Homo sapiens): 56.3 µM; IC50 [17]: 16.4 µM; IC50 ([11]; Homo sapiens, RPMI-8226): 12 ± 4.2 µM; IC50 ([12]; Homo sapiens): 15.2 µM; IC50 ([14]; Homo sapiens): 11.9 µM; IC50 [16, 19]: 16.2 µM
O/N=C(/C[N+]12CN3CN(CN(C3)C1)C2)c1ccc(I)cc1 [NCI-35024, 1-(4-iodophenyl)-2-(15,3,5,7-tetraazatricyclo[3.3.1.1~3,7~]dec-1-yl)ethanone oxime]	–	significantly (p<0.05) sensitize high density MM cells to doxorubicin	–	prevent nuclear export of Topo IIα	–	–	–	–	–
Ratjadone C [reference compound]	–	–	–	–	prevented nuclear export	–	–	–	–
O=C(C[N+]12CN3CN(CN(C3)C1)C2)c1ccc(Br)cc1 [NCI-32237, 1-(4-bromophenyl)-2-(15,3,5,7-tetraazatricyclo[3.3.1.1~3,7~]dec-1-yl)ethanone]	–	–	–	–	did not affect nuclear export of topo II	did not affect nuclear export of topo II	–	–	–
Clc1cc(Cl)c(C[N+]23CN4CN(CN(C4)C2)C3)cc1Cl [NCI-155877, 1-(2,4,5-trichlorobenzyl)-15,3,5,7-tetraazatricyclo[3.3.1.1~3,7~]decane]	did not prevent export of p53	synergized with the topo II inhibitor doxorubicin	2.82 ± 1.18	overlapping staining of topo II with DAPI	smaller or little effect on topo II nucleus export inhibition	did not significantly reduce the level of cytoplasmic topo IIα	50.4	56.8	IC50 [6, 18]: 37.1 µM; Fold-increase nuclear topo IIα [7]: 3.92 fold; IC50 ([8]; Homo sapiens): 136 µM; IC50 [17]: 37.2 µM; IC50 ([11]; Homo sapiens, RPMI-8226): 19.5 ± 5.4 µM; IC50 ([12]; Homo sapiens): 31.4 µM; IC50 ([14]; Homo sapiens): 20.4 µM; IC50 [16, 19]: 33.6 µM
